For this experiment, the target named is T1, G protein-coupled receptor 119 (GPR-119) (Mesocricetus auratus, UniProt A0A1U8CD06).
T1 construct: hamster-derived β-cells containing G protein-coupled receptor 119 (GPR-119), HIT-T15 cells; host or cells: HIT-T15 (hamster pancreatic β-cells)
T1 sequence (A0A1U8CD06 1-334): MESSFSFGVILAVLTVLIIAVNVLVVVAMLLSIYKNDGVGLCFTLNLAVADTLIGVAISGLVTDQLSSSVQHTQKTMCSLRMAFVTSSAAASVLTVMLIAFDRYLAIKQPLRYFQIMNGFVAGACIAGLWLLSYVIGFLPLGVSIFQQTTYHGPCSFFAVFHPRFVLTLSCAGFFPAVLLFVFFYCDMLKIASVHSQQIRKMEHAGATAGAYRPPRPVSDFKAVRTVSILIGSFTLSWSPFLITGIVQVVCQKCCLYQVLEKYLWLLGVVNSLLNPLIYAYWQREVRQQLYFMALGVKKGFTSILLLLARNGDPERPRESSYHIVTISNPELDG
Description: cAMP activity in HIT-T15 cells (cAMP dynamic kit, FRET). In kind it is cell-based, hamster. As for the experimental part: To check whether the cyclohexene derivatives according to the present invention activate cyclic adenosine monophosphate (cAMP), experiments were carried out, as follows.
The HIT-T15 cells were plated on a 96-well plate at 60,000 cells per well. On the next day of plating, the cells were treated with a varying concentration of each of the example compounds according to the present invention, and incubated at 37° C. for an hour. In this case, each of the treated compounds was used at six concentrations, ranging from 0.0032 to 10 μM, to treat the cells.
The cyclic adenosine monophosphate (cAMP) activity was measured according to the manufacturer's instruction using a cAMP dynamic kit commercially available from Cis Bio Inc. (Bedford, Mass.). The cells were lysed, and a level of cAMP was determined by a competitive immunoassay using D2-labeled cAMP and a cryptate-labeled anti-cAMP antibody. Fluorescence was read in Flex Station (Molecular Devices). […] Unlabeled cAMP in the cell lysate competed with the D2-labeled cAMP against the cryptate-labeled antibody. Since a decrease in the measured intensity of the FRET signals represents a level of cAMP in the cells, the cAMP activities of the compounds are calculated as a change in FRET signals by adjusting an amount of dimethyl sulfoxide (DMSO).

[1] abbreviates: 1 hour at 37° C., six concentrations 0.0032 to 10 μM, read-out: EC50.

As usually defined, the EC50 is the concentration giving half of the maximal effect.

Each structure is given as a SMILES string. Read-outs that look alike come from different tables or passages of the source.

For `CCc1cnc(N2CCC(COc3ccc(C4=CCC(C(=O)N5CC(F)(F)C(F)(F)C5)CC4)cc3F)CC2)nc1` (centres unmarked) [Example 460, (4-(4-((1-(5-ethylpyrimidin-2-yl)piperidin-4-yl)methoxy)-3-fluorophenyl)cyclohex-3-enyl)(3,3,4,4-tetrafluoropyrrolidin-1-yl)methanone], the EC50 is, setting by setting: under setting [1], 12 nM; (Table 2, read-out: EC50 value) at most 50 nM.

For `CC(C)(C)OC(=O)N1CCC(COc2ccc(C3=CCC(C(=O)N4CCC(C#N)CC4)CC3)cc2)CC1` (centres unmarked) [Example 262], the EC50 reads like this: under setting [1], 7 nM; (Table 2, read-out: EC50 value) at most 50 nM.

With `CCc1cnc(N2CCC(COc3ccc(C4=CCC(C(=O)N5CCC(CCO)CC5)CC4)cc3F)CC2)nc1` (single isomer, unassigned; (-)) [Example 430, (−)-(4-(4-((1-(5-ethylpyrimidin-2-yl)piperidin-4-yl)methoxy)-3-fluorophenyl)cyclohex-3-enyl)(4-(2-hydroxyethyl)piperidin-1-yl)methanone], the EC50 runs as follows: under setting [1], 9 nM; (Table 2, read-out: EC50 value) at most 50 nM.

With `CCc1cnc(N2CCC(COc3ccc(C4=CCC(C(=O)N5CCC(CO)CC5)CC4)cn3)CC2)nc1` (centres unmarked) [Example 354, (4-(6-((1-(5-ethylpyrimidin-2-yl)piperidin-4-yl)methoxy)pyridin-3-yl)cyclohex-3-enyl)(4-(hydroxymethyl)piperidin-1-yl)methanone], the EC50 by setting is: under setting [1], 22 nM; (Table 2, read-out: EC50 value) at most 50 nM.

As for `CC(OC(=O)N1CCC(COc2ccc(C3=CCC(C(=O)N4CCCC4)CC3)cc2F)CC1)C(F)(F)F` (centres unmarked) [Example 406, 1,1,1-trifluoropropan-2-yl 4-((2-fluoro-4-(4-(pyrrolidine-1-carbonyl)cyclohex-1-enyl)phenoxy)methyl)piperidine-1-carboxylate], the EC50 reads like this: under setting [1], 36 nM; (Table 2, read-out: EC50 value) at most 50 nM.

For the compound `CCc1cnc(N2CCC(COc3ccc(C4=CCC(C(=O)N5CC[C@H](F)C5)CC4)cc3)CC2)nc1` (single isomer, unassigned; (-)) [Example 458], the concentration for a half-maximal effect (EC50) under setting [1] is 12 nM.

Turning to `CCc1cnc(N2CCC(COc3ccc(C4=CCC(C(=O)N5CCC6(CC5)OCCO6)CC4)cc3F)CC2)nc1` (centres unmarked) [Example 306, (4-(4-((1-(5-ethylpyrimidin-2-yl)piperidin-4-yl)methoxy)-3-fluorophenyl)cyclohex-3-enyl)(1,4-dioxa-8-azaspiro[4.5]decan-8-yl)methanone], the EC50 is, setting by setting: (EC50 (nM), 1 hour at 37° C., six concentrations 0.0032 to 10 μM) 8.9 nM; (EC50 value, Table 2) at most 50 nM.

Turning to `O=C(C1CC=C(c2ccc(OCC3CCN(C(=O)C4(C(F)(F)F)CCCC4)CC3)c(F)c2)CC1)N1CCCC1` (centres unmarked) [Example 409, (4-(3-fluoro-4-((1-(1-(trifluoromethyl)cyclopentanecarbonyl)piperidin-4-yl)methoxy)phenyl)cyclohex-3-enyl)(pyrrolidin-1-yl)methanone], under setting [1], the EC50 turned out to be 62 nM.

As for `CCc1cnc(N2CCC(COc3ccc(C4=CCC(C(=O)N5CCSCC5)CC4)cn3)CC2)nc1` (centres unmarked) [Example 352, (4-(6-((1-(5-ethylpyrimidin-2-yl)piperidin-4-yl)methoxy)pyridin-3-yl)cyclohex-3-enyl)(thiomorpholino)methanone], under setting [1], the EC50 is 63 nM.

As to `CCc1cnc(N2CCC(COc3ccc(C4=CCC(C(=O)N5CC(F)(F)C(F)(F)C5)CC4)c(F)c3)CC2)nc1` (single isomer, unassigned; (-)) [Example 463, (−)-(4-(4-((1-(5-ethylpyrimidin-2-yl)piperidin-4-yl)methoxy)-2-fluorophenyl)cyclohex-3-enyl)(3,3,4,4-tetrafluoropyrrolidin-1-yl)methanone], under setting [1], the EC50 worked out at 88 nM.

With `CC(C)(C)OC(=O)N1CCC(COc2ccc(C3=CCC(C(=O)N4CCC5(C=Cc6ccccc65)CC4)CC3)cc2)CC1` (centres unmarked) [Example 264, tert-butyl 4-((4-(4-(spiro[indene-1,4′-piperidin]-1′-ylcarbonyl)cyclohex-1-enyl)phenoxy)methyl)piperidine-1-carboxylate], the EC50 (Table 2, read-out: EC50 value) is at most 50 nM.

Values taken from patent US10723699B2 (Hyundai Pharm Co., Ltd., priority 2015, dated 2020).
